The record followed here is patent US20260365656A1, “PYRAZOLE DERIVATIVE, AND PHARMACEUTICALLY ACCEPTABLE SALT, STEREOISOMER, PHARMACEUTICAL COMPOSITION AND USE THEREOF” (STARG (WUHAN) PHARMACEUTICAL TECHNOLOGY CO., LTD, priority 2023, published 2026).

Structures can show the parent of a compound that is named as a salt.

A short description of series [1]: Pharmacokinetic Study of Test Compounds Administered Orally and Intravenously in Mice. In kind it is in vivo, mouse (ICR, male). To be noted: ICR mice. The text has this: Experimental Example 5: Pharmacokinetic Study of Test Compounds Administered Orally and Intravenously in Mice
This study used ICR male mice as test animals. The plasma concentrations of the test compounds and the reference compound in mice were quantitatively determined at different time points using the LC-MS/MS method following intravenous injection or oral administration to evaluate the pharmacokinetic characteristics of the test compounds in mice.
ICR mice (male, 20-30 g, 6-8 weeks old, Beijing Charles River).
A clear solution of the test compound was administered to ICR mice (fasted overnight or fed) via tail vein injection or oral gavage. For intravenous injection, blood samples (50 μL) were collected via cheek puncture at 0 h (pre-dose) and at 0.083, 0.25, 0.5, 1, 2, 4, 6, 8, and 24 h post-dose into anticoagulant tubes containing sodium heparin. The mixtures were thoroughly vortexed at 4 °C and centrifuged at 6000 rpm for 3 minutes. For oral gavage, blood samples were collected via cheek puncture at 0 h (pre-dose) and at 0.083, 0.25, 1, 2, 4, 6, 8, and 24 h post-dose into anticoagulant tubes containing sodium heparin. The mixtures were vortexed thoroughly, and centrifuged at 6000 rpm for 3 minutes. Plasma drug concentrations were determined using the LC-MS/MS method. Pharmacokinetic parameters were calculated using Phoenix WinNonlin 8.2.0 pharmacokinetic software with a non-compartmental model and linear-logarithmic trapezoidal rule.

The target in the next series is T1, CDK1/cyclin B1 (Homo sapiens, UniProt P06493).
T1 construct: purchased Carna Biosciences
T1 sequence (P06493 whole entry): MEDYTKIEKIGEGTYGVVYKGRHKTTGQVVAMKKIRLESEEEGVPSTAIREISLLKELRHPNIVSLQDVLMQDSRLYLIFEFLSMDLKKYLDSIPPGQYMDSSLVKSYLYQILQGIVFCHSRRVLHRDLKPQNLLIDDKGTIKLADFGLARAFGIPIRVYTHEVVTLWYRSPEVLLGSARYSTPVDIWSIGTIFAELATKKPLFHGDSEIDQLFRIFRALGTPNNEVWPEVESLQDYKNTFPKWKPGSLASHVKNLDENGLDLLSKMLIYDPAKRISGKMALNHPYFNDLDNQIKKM
T1 sequence (P14635 whole entry partner): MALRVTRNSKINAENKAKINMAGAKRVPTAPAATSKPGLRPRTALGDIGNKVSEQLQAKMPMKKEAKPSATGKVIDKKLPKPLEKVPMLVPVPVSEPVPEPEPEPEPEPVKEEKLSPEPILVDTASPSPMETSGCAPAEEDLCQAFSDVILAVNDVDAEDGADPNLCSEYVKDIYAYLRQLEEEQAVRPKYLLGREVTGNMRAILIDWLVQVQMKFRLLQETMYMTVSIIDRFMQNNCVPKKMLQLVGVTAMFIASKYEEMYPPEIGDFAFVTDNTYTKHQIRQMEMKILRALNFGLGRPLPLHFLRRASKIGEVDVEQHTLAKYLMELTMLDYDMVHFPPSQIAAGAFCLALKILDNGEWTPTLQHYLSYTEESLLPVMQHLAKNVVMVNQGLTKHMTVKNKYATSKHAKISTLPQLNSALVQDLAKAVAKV
Briefly: In Vitro CDK1/Cyclin B1 Enzyme Activity Assay (TR-FRET). Conditions: in words. The format is biochemical. The protocol: Experimental Example 2: In Vitro CDK1/Cyclin B1 Enzyme Activity Assay
CDK1/cyclin B1 was purchased from Carna Biosciences. Ulight-4E-BP1 peptide, Eu-anti-phospho-tyrosine antibody, and 1× detection buffer were purchased from PerkinElmer. High-purity ATP was purchased from Promega. EDTA was purchased from Sigma. Nivo multimode plate reader (PerkinElmer) was used.
Preparation of Kinase Buffer Solution: The kinase buffer solution consisted 50 mM HEPES, 1 mM EDTA, 10 mM MgCl2, and 0.01% Brij-35, with pH of 7.4. 2.38 g HEPES, 58 mg EDTA, 406 mg MgCl2, and 20 mg Brij-35 were added to 200 mL buffer, and the pH was adjusted to 7.4.
The stop solution was prepared by mixing 100 μL of 1 M EDTA stock solution with 0.625 μL of 1× detection buffer solution and 1725 μL of distilled water.
The enzyme, Ulight-4E-BP1 peptide, ATP, and the inhibitor were diluted using the kinase buffer solution.
The Eu-anti-phospho-tyrosine antibody was diluted to a concentration of 8 nM/L using the detection buffer solution.
The test compound was serially diluted 5-fold using a multichannel pipette to the 8th concentration, i.e., from 4 μM to 0.0512 nM. The final concentration of DMSO was 4%, and the experiment was set up with duplicate wells. 2.5 μL of each gradient concentration of the inhibitor, 5 μL of CDK1/cyclin B1 enzyme (0.5 ng), and 2.5 μL of a mixture of substrate and ATP (4 mM ATP, 200 nM Ulight-4E-BP1 peptide) were added to a microplate, resulting in a final concentration gradient of the compound from 1 μM to 0.0128 nM, with final ATP and substrate concentrations of 1 mM and 50 nM, respectively. The reaction system was incubated at 25 °C for 60 minutes. After the reaction, 5 μL of the stop solution was added to each well, and further reacted at 25 °C for 5 minutes to terminate the reaction. Then 5 μL of Eu-anti-phospho-tyrosine antibody dilution was added to each well, and the mixture was incubated at 25 °C for 60 minutes. Data were collected using the PerkinElmer Nivo multimode plate reader in TR-FRET mode (excitation wavelength: 320 nm; emission wavelengths: 615 nm and 665 nm).
The raw data were converted to inhibition rates using the equation (Sample−Min)/(Max−Min)×100%. The IC50 value was obtained by fitting the data to a four-parameter curve (using log(inhibitor) vs. response—Variable slope model in GraphPad Prism). Table 1 provides the enzyme inhibitory activity of the compounds of the present application against CDK1/cyclin B1.
In general terms: In TR-FRET formats the signal depends on donor and acceptor labels being close together.

On to `COCc1cc(C(=O)Nc2cc([C@H]3CC[C@@H](OC(=O)NC(C)C)C3)[nH]n2)n(C)n1` [PF-07104091], for which, in series [1] (intravenous, 5 mg/Kg), the “Apparent volume of distribution Vdss” value amounted to 11.8 L/kg, the “Area under plasma concentration-time curve AUC0-last” value was 1645 ng·h/mL, the “Clearance CL” value came to 50.3 mL/min/kg and the “Half-life T1/2” value is recorded as 2.68 h. Further, the “Bioavailability F” value in series [1] (oral 30 mg/Kg vs intravenous 5 mg/Kg) stood at 76.2%. In series [1] (oral, 30 mg/Kg), the “Area under plasma concentration-time curve AUC0-last” value came out at 7524 ng·h/mL, the “Peak concentration Cmax” value worked out at 6317 ng/mL and the “Time to peak Tmax” value is given as 0.25 h.
As for `CON(C)Cc1nn2ccnc(Nc3cc([C@H]4CC[C@@H](OC(=O)NC(C)C)C4)[nH]n3)c2c1C` [Formate salt of compound 2], the “selectivity for CDK2 over CDK1 compared to PF-07104091” value on CDK1/cyclin B1 is reported as “superior selectivity compared to PF-07104091”.
On the same count and under the same terms, then `CON(C)Cc1nn2ccnc(Nc3cc([C@H]4CC[C@@H](OC(=O)NC(C)C)C4)[nH]n3)c2c1F` [Compound 6], with “superior selectivity compared to PF-07104091”.
Turning to `CONCc1nn2ccnc(Nc3cc([C@H]4CC[C@@H](OC(=O)NC(C)C)C4)[nH]n3)c2c1F` [Compound 5], the “selectivity for CDK2 over CDK1 compared to PF-07104091” value on CDK1/cyclin B1 is on record as “superior selectivity compared to PF-07104091”.
On the same count and under the same terms, next, `CNOCc1nn2ccnc(Nc3cc([C@H]4CC[C@@H](OC(=O)NC(C)C)C4)[nH]n3)c2c1F` [Hydrochloride salt of Compound 7]: “superior selectivity compared to PF-07104091”.
Still for that read-out and setting: next, `CNOCc1nn2ccnc(Nc3cc([C@H]4CC[C@@H](OC(=O)NC(C)C)C4)[nH]n3)c2c1C` [Hydrochloride salt of compound 3]: “superior selectivity compared to PF-07104091”; `CONCc1nn2ccnc(Nc3cc([C@H]4CC[C@@H](OC(=O)NC(C)C)C4)[nH]n3)c2c1C` [Formate salt of compound 1]: “superior selectivity compared to PF-07104091”.
